Tested on: Plasmodium falciparum
Test: GSK_TCMDC: Inhibition of Plasmodium falciparum 3D7 in whole erythrocytes, using parasite LDH activity as an index of growth.
Type: functional, organism-based
Conditions: Plasmodium falciparum, 3D7

| Structure (SMILES) | XC50 [nM] |
| --- | --- |
| COc1ccc(N2CCN(CCc3ccc(NC(=O)c4ccc([N+](=O)[O-])cc4)cc3)CC2)c(OC)c1 | 1170 |
| COc1ccc(-c2cc(C(=O)N[C@@H](CC3CCCCC3)C(=O)NCCN3CCCCC3)ccc2O)cc1 | 950 |
| Cc1ccc(C(=O)NCC2CCN(c3ccc(C(F)(F)F)cc3NC(=O)c3ccco3)CC2)cn1 | 782 |
| Cc1cccc2nc(-c3cccc(-c4cccc(NC(=O)CNc5ccc(C(N)=O)cc5)c4)c3)[nH]c12 | 282 |
| CS(=O)(=O)c1ccc(CCNCc2ccc(-c3cccc(-c4nc5ccccc5[nH]4)c3)cc2)cc1 | 194 |
| COC(=O)c1ccc(CCC(C)NCC(O)c2cccc(C(F)(F)F)c2)cc1 (configuration not stated) | 411 |
| O=C(Nc1ccc(Cl)cc1)c1cc(Cl)ccc1NC(=O)C1CCc2ccccc2O1 (configuration not stated) | 1790 |
| Fc1ccc2[nH]c(-c3ccc(-c4cccc(CN5CCN(CCN6CCOCC6)CC5)c4)cc3)nc2c1 | 145 |
| COc1cccc(OC)c1OCCCON1C(=N)N=C(N)NC1(C)C | 7.28 |
| CC(C)n1c(CC2CCN(CC3CCN(C(=O)/C=C/c4ccc(Cl)c(Cl)c4)CC3)CC2)nc2ccccc21 | 612 |
| CN1CCC(c2cc3c(cc2Br)CCN3C(=O)Nc2ccc(-c3ccncc3)c(Cl)c2)CC1 | 1010 |
| Cn1c(N)cc(-c2cccc(I)c2)c2c(=O)nc(N)nc1-2 | 269 |
| NC(=O)c1cccc(Nc2nccc(Nc3ccc(Oc4c(Cl)cccc4Cl)c(Cl)c3)n2)c1 | 871 |
| COc1ccc2nc(C)cc(N/N=C/c3ccccc3[N+](=O)[O-])c2c1 | 177 |
| CCc1c(C)nc(-n2nc(C)cc2NC(=O)CC(c2ccccc2)c2ccccc2)[nH]c1=O | 652 |
| O=C(Nc1cc(Cl)ccc1-n1cncn1)C1(c2ccccc2)CC1 | 455 |
| CC(C)CN1CCCN(Cc2cccc(NC(=O)c3ccc(-c4ccccc4)cc3)c2)CC1 | 883 |
| COc1cc(CNc2ncc(-c3ccsc3)c(-c3nccs3)n2)cc(OC)c1 | 126 |
| Cc1cccc(-c2cccc(CNc3nc(NCCc4ccc(O)cc4)nc(N4CCNCC4)n3)c2)c1 | 1190 |
| COc1cc2c(cc1CCNCCCCNCCc1cc3c(cc1OC)CCCC3)CCCC2 | 996 |
| CCOC(=O)CCCN1C(=O)CN=C(c2ccccc2)c2cc(Cl)ccc21 | 778 |
| O=C(Nc1cccc(CN2CCN(Cc3cccc(O)c3)CC2)c1)c1ccc(Cl)c(Cl)c1 | 411 |
| FC(F)(F)c1ccc(NC(=S)N2CCC(CN3CCC(c4c[nH]c5ccccc45)CC3)CC2)cc1 | 663 |
| OC(CN(Cc1ccccc1)Cc1ccccc1)Cn1c2ccc(Cl)cc2c2cc(Cl)ccc21 (configuration not stated) | 995 |
| COc1ccccc1C1CC(c2ccc(Br)cc2)=NN1C(=O)c1ccccc1 (configuration not stated) | 1110 |

| Structure (SMILES) | XC50 [nM] |
| --- | --- |
| O=S(=O)(c1ccc(OCc2ccc(Cl)cc2)cc1)c1cc2c(cc1OCc1ccccc1)CCN(CC1CC1)CC2 | 1110 |
| O=C(/C=C/c1ccc(Cl)c(Cl)c1)N1CCC(CN2CCC(c3c[nH]c4ncccc34)CC2)CC1 | 1090 |
| CCCCN(CCCC)CCCCNc1c2ccc(Cl)cc2nc2ccc(OC)cc12 | 175 |
| O=C(NCCCCCN1CCC(c2c[nH]c3ccccc23)CC1)Nc1cccc(C(F)(F)F)c1 | 1000 |
| O=C(NCc1cccnc1)C(c1cc2ccccc2o1)N1CCN(C(c2ccccc2)c2ccccc2)CC1 (configuration not stated) | 713 |
| O=C(Nc1cccc(CN2CCN(Cc3ccc(O)cc3)CC2)c1)c1ccc(Cl)c(Cl)c1 | 253 |
| FC(F)(F)c1cccc(Nc2nc3nonc3nc2NC2C3CC4CC(C3)CC2C4)c1 (configuration not stated) | 661 |
| Cc1cc(-c2ccc3occ(CCN)c3c2)cnc1N | 877 |
| COc1cc(NC(=O)c2nn(CCCN3CCC4(CC3)C(=O)NCN4c3ccccc3)cc2-c2ccc(Cl)c(Cl)c2)cc(OC)c1OC | 753 |
| O=C(NC1CCCCC1)c1csc(C2CCCN(C(=O)c3ccc(O)c(-c4cccc(C(F)(F)F)c4)c3)C2)n1 (configuration not stated) | 1670 |
| COc1ccc(Br)cc1/C=C/C(=O)Nc1cccc(C2CCN(C)CC2)c1 | 523 |
| Cc1cc(C(=O)OCC(N)=O)c(C)n1-c1ccc(F)cc1 | 331 |
| CCCC1CCNC(C(O)c2ccnc3ccc(OC)cc23)C1 (configuration not stated) | 426 |
| CCCCCCCCOc1c(OCC)cc(Cc2cnc(N)nc2N)cc1OCC | 1530 |
| O=C(Nc1ccc(N2CCCCC2)c(Cl)c1)c1ccc(Br)o1 | 549 |
| COc1ccc(CCNCCCCCCNCCCc2ccc(Cl)cc2)cc1OC | 951 |
| CCOc1cc(C(=O)N[C@@H](Cc2ccccc2)[C@H](O)CNCc2cc(OC)cc(OC)c2)cc(N2CCCCS2(=O)=O)c1 | 519 |
| O=C(Nc1ccc(Cl)c(Cl)c1)Nc1ccc2nccc(N3CCNCC3)c2c1 | 262 |
| COc1ccc(NC(=O)Nc2cccc(-c3ccncc3)c2)cc1N1CCN(C)CC1 | 552 |
| Nc1nc(N)c2c(CCc3ccc(Cl)c(Cl)c3)cccc2n1 | 669 |
| Cc1cc(-c2ccc(NC(=O)N3CCc4cc(Br)c(N5CCN(C)CC5)cc43)cc2)ccc1C#N | 883 |
| O=C(c1ccc(OCCn2ccnc2)cc1)N1CCC(c2ccc(Br)cc2)C1 (configuration not stated) | 116 |
| CCOc1cccc(C(=O)Nc2ccc(-c3nc4ccccc4[nH]3)cc2)c1 | 1010 |
| O=S(=O)(c1ccc(OCc2ccc(Cl)cc2)cc1)c1cc2c(cc1OCc1ccccc1)CCN(C1CCC1)CC2 | 1020 |
| Cc1cc(Nc2ccc3ccccc3c2)n2ncnc2n1 | 173 |

| Structure (SMILES) | XC50 [nM] |
| --- | --- |
| CC1(C)C(=O)Nc2ccc3c(c21)CC1SC(=O)NN=C31 (configuration not stated) | 1490 |
| CN(C)CCCOc1cccc(CCNCc2cccc(Oc3ccc(Cl)cc3)c2)c1 | 1010 |
| N#Cc1cccc(NC(=O)Nc2ccc(-c3ccc(-c4nc5cc(C(F)(F)F)ccc5[nH]4)cc3)cc2)c1 | 145 |
| c1ccc2c(Nc3ccc(Cc4ccc(Nc5c6ccccc6nc6ccccc56)cc4)cc3)c3ccccc3nc2c1 | 162 |
| COc1ccc(COc2cc(NCCCN)nc3ccccc23)cc1 | 1280 |
| COc1ccc(-c2cc(C(=O)N[C@@H](Cc3ccccc3)C(=O)NCCN3CCCCC3)ccc2O)cc1 | 792 |
| Cc1cc(N)cc2nc(-c3ccc(N)cc3)[nH]c12 | 892 |
| COC(=O)c1ccccc1COc1ccc(CC2(NC(=O)[C@H](Nc3ccc(C#N)c4ccccc34)C(C)(C)C)CCCC2)cc1 | 856 |
| Cc1cc(NC2CCN(CC3CCCCC3)C2)nc(Nc2ccc(Br)cc2)n1 (configuration not stated) | 566 |
| FC(F)(F)c1ccc(/C=C/c2cncnc2Nc2ccc3[nH]c(Cc4ccccc4)nc3c2)cc1 | 608 |
| CO/C(=C\C=C\c1cc2cc(Cl)c(Cl)cc2[nH]1)C(=O)NC1CC(C)N(C)C(C)C1 (configuration not stated) | 902 |
| COc1cccc(Nc2nc(NCCO)c3ccccc3n2)c1 | 151 |
| CCN(CC)c1ccc(C(c2ccc(N(CC)CC)cc2)c2ccc([N+](=O)[O-])cc2)cc1 | 946 |
| CC(NCCC1CCC(NC(=O)N[C@H](C)C(O)(c2ccccc2)c2ccccc2)CC1)c1cccc2ccccc12 (some centres not stated) | 1100 |
| O=C(/C=C/c1ccc(Cl)c(Cl)c1)NCCCCCN1CCC(NC(=O)Nc2ccc(F)cc2F)CC1 | 739 |
| COc1cc(F)c2nccc([C@@H](O)CN3CCC(NC(=O)OCc4ccccc4)C(F)C3)c2c1 (some centres not stated) | 407 |
| CCCC(C)NC(=O)[C@H]1CNCCN1C(=O)CCCc1ccccc1 (some centres not stated) | 186 |
| O=[N+]([O-])c1cccc(CNCC2CCN(Cc3ccc(O)cc3)CC2)c1 | 666 |
| CC[C@H]1CN2CCc3cc(OC)c(OC)cc3[C@@H]2C[C@@H]1C[C@H]1NCCc2c1cc(OC)c(OC)c2Br | 650 |
| Oc1ccc2nc(NCCCc3ccccc3)nc(NCCc3ccccc3)c2c1 | 289 |
| O=C(NCCCCN1CCC(C(c2ccccc2)c2ccccc2)CC1)c1ccc(NC(=O)c2ccc(Cl)cc2)cc1 | 769 |
| Cc1nn(CCOC(=O)NC(NCC2COc3ccccc3O2)C(Cl)(Cl)Cl)cc1[N+](=O)[O-] (configuration not stated) | 917 |
| O=C(Nc1cccc(C(F)(F)F)c1)c1cccc(S(=O)(=O)NC2CCN(CC3CCCCC3)C2)c1 (configuration not stated) | 588 |
| COc1cc(-c2ccc(-c3cnc(N)nc3OC)[nH]2)cc(OC)c1OC | 729 |
| COc1ccc(-c2ccc(CNCc3ccccc3)cc2)cc1S(=O)(=O)NCCN1CCCC1 | 726 |

| Structure (SMILES) | XC50 [nM] |
| --- | --- |
| CNCc1ccc2nc(-c3coc(Cc4cc(Cl)ccc4OCC(C)C)n3)[nH]c2c1 | 838 |
| COc1ccc(CCNCCCCCNCCCc2ccc(Cl)cc2)cc1OC | 808 |
| COc1ccc2c(NN=Cc3ccc(Cl)cc3)ccnc2c1 | 865 |
| O=C(NCc1cccc(C(F)(F)F)c1)c1ccc(-c2nc3cc(F)c(F)cc3[nH]2)cc1 | 776 |
| FC(F)(F)c1ccc2[nH]c(-c3ccc(-c4ccc(CN5CCN(c6cnccn6)CC5)cc4)s3)nc2c1 | 652 |
| Cn1nccc1C(=O)NCCNCc1cccc(-c2ccc(-c3nc4cc(C(F)(F)F)ccc4[nH]3)s2)c1 | 151 |
| COc1cc(NC(=O)c2cc3c(C)nn(-c4cccc(C(F)(F)F)c4)c3s2)cc(OC)c1OC | 801 |
| Cc1ccc(C)c(CC(=O)N2CCC(n3c(C)nc4ccc(F)cc43)CC2)c1 | 193 |
| CC(C)(C)c1ccc(NC(=O)c2cccc(CN3CCCN(Cc4cccc(Cl)c4)CC3)c2)cc1 | 997 |
| O=C(/C=C/c1ccc(Cl)c(Cl)c1)NCCCCCN1CCC(CCNC(=O)/C=C/c2ccccc2F)CC1 | 871 |
| CCCCN(CCCC)CCCCNc1c2ccccc2nc2ccccc12 | 148 |
| O=C(c1ccccc1)N1CCC(CN2CCOC(c3ccccc3)(c3ccccc3)C2)CC1 | 497 |
| Oc1ccc(CCNCCCCCCNCCc2ccc(Cl)cc2)c(Cl)c1O | 775 |
| CN1CCC(NCc2cccc(-c3cccc(-c4nc5cc(C(F)(F)F)ccc5[nH]4)c3)c2)CC1 | 142 |
| Cc1cc(N[C@@H](Cc2ccccc2)C(=O)NCCc2ccccc2)nc(NCCOc2ccccc2)n1 | 1000 |
| COc1cccc(CNC[C@@H](O)[C@H](Cc2ccccc2)NC(=O)c2cc(C(C)C)cc(N3CCCC3=O)c2)c1 | 953 |
| O=C(Nc1ccc(Br)cc1)N(CCN1CCOCC1)CC(O)COCc1ccc(Cl)c(Cl)c1 (configuration not stated) | 929 |
| CC(C)(CN1CCCC1)CN(Cc1ccc(-c2ccc(C(F)(F)F)cc2)cc1)C(=O)Cn1c(CCc2cccc(F)c2F)nc(=O)c2ccccc21 | 790 |
| C=CCc1c(C(=O)NCC23CC4CC(CC(C4)C2)C3)nc2ccccc2c1O | 1030 |
| COC(=O)c1cc(OC2CCOC2=O)cc2c1OC(C)(C)O2 (configuration not stated) | 806 |
| CCOc1cccc2nc(NCCCNCc3ccc(Cl)c(Cl)c3)cc(NCCCNCc3ccc(Cl)c(Cl)c3)c12 | 574 |
| COc1ccccc1-n1c(SCC(=O)c2ccc3c(c2)CC(=O)N3C)nnc1-c1cccs1 | 963 |
